Experimental data as given in patent US9611314B2, “Functional peptide analogs of PEDF” (The Penn State Research Foundation, priority 2013, dated 2017).
Where a SMILES comes first, the peptide text is derived from it. Where no end group is shown, it is not given here. [ ]: non-standard residue; d: D form. The star is where a group is joined. 1Nal = N[C@@H](Cc1cccc2ccccc12)C(=O)O; AEEA = NCCOCCOCC(=O)O; Butyryl = CCCC(=O)*

Columns and labels:
VEGFA = VEGFA secretion by RPE cells, Luminex; format: cell-based, human; conditions: for effect in reducing VEGFA levels compared to P78: 25 nM peptide, serum starvation
Experimental: (§1) The analogs were tested for their efficacy in reducing levels of TNFα, IFNγ, VEGF-A and increasing cell viability in in vitro assays. Efficacy was compared to both non-treated oxidative stressed controls and the control standard P78.
(§2) Briefly, to test efficacy of the compounds in preventing cell death, experiments were performed to screen for the ability of each analog to: 1) increase cellular bioenergetic levels in an ATP assay and 2) reduce cell death in an LDH assay. To test the action of each analog on inflammatory processes, Luminex bead arrays were used to examine the ability of each analog to decrease production of inflammatory cytokines. To test for the potential of each analog to reduce vascular leakage, qPCR was used to examine the ability of each analog to increase mRNA levels of ZO1 and occludin, two junction proteins essential to vascular integrity. To test peptide stability in the vitreous, the analogs were incubated with dissected vitreous humor and the samples were analyzed at various time points using Maldi-TOF. These tests allowed for the systematic selection of analogs having the least toxicity and the strongest potential to reduce pathology in vivo.
Experiments were designed to assess the effects of each peptide compared to P78 on the inflammatory and vascular permeability/angiogenesis cytokines TNFα, IFNγ, and VEGFA. Briefly, human retinal RPE cells were grown to ˜75% confluency in 10% serum containing medium. The cells were then exposed to serum starvation in the presence or absence (control) of 25 nM of each peptide including the prototype P78 and the active fragment of P78, SpxA1. The supernatant from each treatment was tested for effects on the secretion of TNFα, IFNγ, and VEGFA. The data represent the percent change to the control samples and p values are given for each peptide in relationship to the P78 treatment (FIGS. 3A through 3B).

RPE cultures = assay: In vitro tests of inflammation, angiogenesis and cell viability, summarised together; format: cell-based, human; conditions: assays other than VEGFA
Experimental: as §1
The analogs disclosed in Table 1 were assayed for improved stability and efficacy in in vitro assays for inflammation, angiogenesis, and cell death, which are the three leading pathological features of diabetic retinopathy.
as §2, with “These tests allowed for the systematic selection of analogs having the least toxicity and the strongest potential to reduce pathology in vivo.” left out

human ARPE19 cells = assay: Cell viability by ATP levels (CellTiter-Glo), serum starvation or H2O2; format: cell-based; conditions: for ATP viability tests: selection for in vivo studies: serum starvation and 300 uM H2O2, 25 nM peptide, 48 hr
Experimental: as §1, §2
The effects of the peptides to increase cell viability by increasing levels of ATP were tested in two models of cell death: (i) serum starvation; (ii) oxidative stress caused by hydrogen peroxide toxicity (300 uM). With respect to serum starvation, human ARPE19 cells were grown to ˜85% confluency in 10% serum containing medium after which the cells were placed in serum-free medium for 48 hr in the presence or absence (control) of 25 nM of each peptide. For ATP assay, CellTiter-Glo® reagents were used and luminescence was determined after 12 min spectrophotometrically (n=4) (FIG. 2A). With respect to oxidative stress, human ARPE19 cells were grown to ˜85% confluency in 10% serum containing medium. The cells were then treated with 300 uM H2O2 for 48 hours in the presence or absence (control) of 25 nM of each peptide. Levels of ATP were measured and % luminescence to controls and P78 was quantitated (n=4). Changes to ATP levels are plotted against control values and p values are given to P78 (FIG. 2B).

ZO1 and occludin = assay: qPCR of tight junction mRNA (potential to reduce vascular leakage); format: cell-based; conditions: compared to P78 and SpxA1
Experimental: as §2
To test for the potential of each peptide (81-2, 81-5, 81-12, 81-13 and 81-20) to reduce vascular leakage, qPCR was used to examine the ability of each analog to increase mRNA levels of Z01, a junction protein essential to vascular integrity (FIG. 4A).

VEGF = assay: Vitreous VEGF after 15 wks eye drops (Luminex); format: in vivo, Ins2Akita mouse; conditions: 5 μg eye drop 2×/wk for 15 wks, relative to diabetic controls
Experimental: From the in vitro P78 peptide analog screening studies, five structurally diverse analogs with best biological activity were selected to test their efficacy in the diabetic mouse eye. In vivo effects of these peptides were tested in the Ins2Akita mouse model of DR, a well-characterized DR model that has a mutation in the insulin gene. Heterozygote Ins2Akita mice (Jackson Lab) become hyperglycemic (HG) at ˜4.5 wks of age. RGC death and inflammation occur within the first 4-6 wks of DR and vascular pathology is first noticed ˜13 wks after the onset of diabetes. The studies were designed to identify peptide candidates with pleotrophic effects on cell death, inflammation, and vascular leakage in the diabetic retina.
Male hyperglycemic mice with blood glucose levels >300 mg/dL were used and treatments carried as previously described for P78 (Liu et al., 2012, Mol. Med., 18(1): 1387-1401). Diabetic mice were treated 2×/wk for 15 wks at the onset of HG using a single dose of 5 μg/5 μl artificial tears for each drug, a dose at which P78 is effective. Both eyes received the same treatment to avoid drug cross contamination between the eyes of an individual animal. […]
Levels of VEGF were also quantitated in the vitreous of the 15 wks peptide treated and control groups using the Luminex bead technology. […]

HUVEC = assay: VEGF-mediated HUVEC tube formation on human dermal fibroblasts; format: cell-based; conditions: 100 nM peptide, 4 ng/ml VEGF, 12 days; compared to VEGF
Experimental: Human dermal fibroblasts were cultured at 1×10^5/well in IncuCyte seeding medium (Essen Bioscience) in 96 wells plates for 1 hr. Medium was removed and replaced with complete IncuCyte growth medium (Essen Bioscience). Human umbilical vein endothelial cells (HUVEC) containing a green fluorescent marker (HUVEC CytoLight green) cells at 2000 cells/well were/well to attached dermal fibroblasts cultures and placed in the IncuCyte Zoom fluorescent and phase contrast multiplex imaging incubator (Essen BioScience). Twenty four hours later 4 ng/ml VEGF was added to all wells and 100 nM/ml PEDF peptides added to test wells. Cultures containing VEGF alone were used as positive controls and those containing 100 μM Suramin (VEGF inhibitor) used as negative controls. The cultures were placed at 37° C. in the Incucyte Zoom and HUVEC tube length networks measured over a 12 day incubation period using the Incucyte CellPlayer Angiogenesis software module and interface systems. Media was refreshed every 3-4 days.

in vivo = assay: in vivo; design: species or system rodents; conditions: topical or ocular, 2 ug
Experimental: In addition, bioavailability studies of the peptides in rodent eyes were conducted and the results were compared to the control standard P78 peptide. For example, the peptides were tested in bioavailability studies in rodents at 1, 2, 4, 8 hrs (n=4 each peptide/time pt). The animals were given a single eye drop containing 2 μg of each peptide. At each time point the animals were sacrificed, vitreous harvested, and bioavailability assessed by Maldi TOF.

TNFα = TNFα secretion by RPE cells, Luminex; format: cell-based, human
Experimental: as §1, §2
(§3) Experiments were designed to assess the effects of each peptide compared to P78 on the inflammatory and vascular permeability/angiogenesis cytokines TNFα, IFNγ, and VEGFA. […]

IFNγ = IFNγ secretion by RPE cells, Luminex; format: cell-based, human
Experimental: as §1, §2, §3

[1] = Peptide bioavailability in mouse vitreous after 5 μg eye drop (MALDI TOF); format: in vivo, C57BL/6 mice; conditions: compared to P78 and SpxA1
Experimental: Before the longitudinal efficacy studies were carried out in vivo, the bioavailability of the five analogs was examined in comparison to the parent compound P78 and its active 29-mer derivative, SpxA1.
Bioavailability of each peptide was determined in vitreous samples obtained at various time points after eye drops were given. Vitreous samples were harvested from enucleated eyes and immediately analyzed by mass spectrometry. Spectral intensities were compared to spectra of known concentrations of each analog to calculate amounts of peptides reaching the vitreous. The eye drops administered to normal mouse eyes contained 5 μg of the test compound. Bioavailability was studied at three time points: 1, 4, 6 hr using four animals/time point (n=8 eyes). The vitreous was rapidly dissected from each group after the drops were given and immediately analyzed by MALDI TOF.

[2] = change versus control standard P78
[3] = change versus non-treated stressed control (C)

## FGADERTESIIHR [Peptide 81-19]
VEGFA
  effect in reducing VEGFA levels compared to P78: significantly better effects in reducing VEGFA levels
RPE cultures
  effect on the other assays compared to P78: less effective than P78

## VLLSPLSVATALSAISIGADARTASIIHR [Peptide 81-10]
VEGFA
  effect in reducing VEGFA levels compared to P78: significantly better effects in reducing VEGFA levels
RPE cultures
  effect on the other assays compared to P78: less effective than P78

## {BA*}NFGYDLYRVRSSMSPTTNSALSLGADERTESIIHR{PEG*} (not fully specified (N-terminus, C-terminus); printed as {BA*}NFGYDLYRVRSSMSPTTNSALSLGADERTESIIHR{PEG*}) [Peptide 81-12, P60 + 81-1, butyric acid at N-terminus, PEGylated at C-terminus]
Human ARPE19 cells
  ATP viability tests: selection for in vivo studies: good candidates for the in vivo studies
ZO1 and occludin
  ZO1 mRNA expression: higher expression of ZO1 compared to P78 and SpxA1
VEGF
  VEGF levels in the vitreous: slightly but significantly more effective
HUVEC
  inhibition of HUVEC tube formation: prevented tube formation compared to VEGF but less effective

## SAISIGADARTASIIHR [Peptide 81-3, SAISIGADARTASIIHR]
In vivo
  level at 4 h: 2280 ng/mL

## VLLSPLSVATALSALSLGADERTESIIHRALYYDLISSPDIHGT [Peptide P-78, reference compound]
In vivo
  level at 4 h: 1200 ng/mL

## VLLSPLSVATALSALSLGADERTESIIHR [SpxA1]
In vivo
  level at 4 h: 920 ng/mL

## SALSLGADERTESIIHR [Peptide 81-1, SALSLGADERTESIIHR]
In vivo
  level at 4 h: 1800 ng/mL

## SAISIGADERTESIIHR [Peptide 81-2, SAISIGADERTESIIHR]
In vivo
  level at 4 h: 2000 ng/mL

## L-1-NALGADERTESIIHR ([1Nal]GADERTESIIHR) [Peptide 81-20]
Human ARPE19 cells
  ATP viability tests: selection for in vivo studies: good candidates for the in vivo studies
ZO1 and occludin
  ZO1 mRNA expression: higher expression of ZO1 compared to P78 and SpxA1
HUVEC
  inhibition of HUVEC tube formation: prevented tube formation compared to VEGF but less effective

## {BA*}VLLSPLSVATALSAISIGADARTASIIHR{PEG*} (VLLSPLSVATALSAISIGADARTASIIHR[AEEA]; not fully specified (N-terminus); printed as {BA*}VLLSPLSVATALSAISIGADARTASIIHR{PEG*}) [Peptide 81-4, butyric acid on N-terminus, PEG2-CH2COOH at C-terminus]
TNFα; [2]
  *TNFα % to P78: −8%
TNFα; [3]
  *TNFα % to C: −2%
IFNγ; [2]
  *IFNγ % to P78: −11%
IFNγ; [3]
  *IFNγ % to C: −15%
VEGFA; [2]
  *VEGF % to P78: −0%
VEGFA; [3]
  *VEGF % to C: −11%
Human ARPE19 cells; [2]
  *ATP % to P78: 9%
Human ARPE19 cells; [3]
  *ATP % to C: +7%

## CCCC(=O)N[C@@H](CO)C(=O)N[C@@H](C)C(=O)N[C@H](C(=O)N[C@@H](CO)C(=O)N[C@H](C(=O)NCC(=O)N[C@@H](C)C(=O)N[C@@H](CC(=O)O)C(=O)N[C@@H](C)C(=O)N[C@@H](CCCNC(=N)N)C(=O)N[C@H](C(=O)N[C@@H](C)C(=O)N[C@@H](CO)C(=O)N[C@H](C(=O)N[C@H](C(=O)N[C@@H](Cc1c[nH]cn1)C(=O)N[C@@H](CCCNC(=N)N)C(=O)NCCOCCOCC(=O)O)[C@@H](C)CC)[C@@H](C)CC)[C@@H](C)O)[C@@H](C)CC)[C@@H](C)CC [Peptide 81-5, {BA*}SAISIGADARTASIIHR{PEG*}] (Butyryl-SAISIGADARTASIIHR[AEEA]-OH)
[1]
  stability profile in the vitreous after 6 hr: best stability profile
